# Molecular target: T1, PIKfyve (Homo sapiens, UniProt Q9Y2I7)
# T1 construct: T7 phage fusion (kinase-tagged phage) or DNA tag for qPCR; made in house; host or cells: E. coli BL21-derived host (T7 phage) for most kinases, HEK-293 for the rest
# Assay: Kinase binding assay (kinase-tagged T7 phage, affinity beads, qPCR readout), Kd determination
# Settings: 11-point 3-fold dilution series
# Description: Kinase assays. For most assays, kinase-tagged T7 phage strains were prepared in an E. coli host derived from the BL21 strain. E. coli were grown to log-phase and infected with T7 phage and incubated with shaking at 32° C. until lysis. The lysates were centrifuged and filtered to remove cell debris. The remaining kinases were produced in HEK-293 cells and subsequently tagged with DNA for qPCR detection. Streptavidin-coated magnetic beads were treated with biotinylated small molecule ligands for 30 minutes at room temperature to generate affinity resins for kinase assays. The liganded beads were blocked with excess biotin and washed with blocking buffer (SeaBlock (Pierce), 1% BSA, 0.05% Tween 20, 1 mM DTT) to remove unbound ligand and to reduce non-specific binding. Binding reactions were assembled by combining kinases, liganded affinity beads, and test compounds in 1× binding buffer (20% SeaBlock, 0.17×PBS, 0.05% Tween 20, 6 mM DTT). Test compounds were prepared as 111× stocks in 100% DMSO. Kds were determined using an 11-point 3-fold compound dilution series with three DMSO control points. All compounds for Kd measurements are distributed by acoustic transfer (non-contact dispensing) in 100% DMSO. The compounds were then diluted directly into the assays such that the final concentration of DMSO was 0.9%. All reactions performed in polypropylene 384-well plate. Each was a final volume of 0.02 ml. The assay plates were incubated at room temperature with shaking for 1 hour and the affinity beads were washed with wash buffer (1×PBS, 0.05% Tween 20). The beads were then re-suspended in elution buffer (1×PBS, 0.05% Tween 20, 0.5 μM non-biotinylated affinity ligand) and incubated at room temperature with shaking for 30 minutes. The kinase concentration in the eluates was measured by qPCR.
# An 11-point 3-fold serial dilution of each test compound was prepared in 100% DMSO at 100× final test concentration and subsequently diluted to 1× in the assay (final DMSO concentration=1%). Most Kds were determined using a compound top concentration=30,000 nM. If the initial Kd determined was <0.5 nM (the lowest concentration tested), the measurement was repeated with a serial dilution starting at a lower top concentration.
# T1 sequence (Q9Y2I7 whole entry, the tested form may be a part): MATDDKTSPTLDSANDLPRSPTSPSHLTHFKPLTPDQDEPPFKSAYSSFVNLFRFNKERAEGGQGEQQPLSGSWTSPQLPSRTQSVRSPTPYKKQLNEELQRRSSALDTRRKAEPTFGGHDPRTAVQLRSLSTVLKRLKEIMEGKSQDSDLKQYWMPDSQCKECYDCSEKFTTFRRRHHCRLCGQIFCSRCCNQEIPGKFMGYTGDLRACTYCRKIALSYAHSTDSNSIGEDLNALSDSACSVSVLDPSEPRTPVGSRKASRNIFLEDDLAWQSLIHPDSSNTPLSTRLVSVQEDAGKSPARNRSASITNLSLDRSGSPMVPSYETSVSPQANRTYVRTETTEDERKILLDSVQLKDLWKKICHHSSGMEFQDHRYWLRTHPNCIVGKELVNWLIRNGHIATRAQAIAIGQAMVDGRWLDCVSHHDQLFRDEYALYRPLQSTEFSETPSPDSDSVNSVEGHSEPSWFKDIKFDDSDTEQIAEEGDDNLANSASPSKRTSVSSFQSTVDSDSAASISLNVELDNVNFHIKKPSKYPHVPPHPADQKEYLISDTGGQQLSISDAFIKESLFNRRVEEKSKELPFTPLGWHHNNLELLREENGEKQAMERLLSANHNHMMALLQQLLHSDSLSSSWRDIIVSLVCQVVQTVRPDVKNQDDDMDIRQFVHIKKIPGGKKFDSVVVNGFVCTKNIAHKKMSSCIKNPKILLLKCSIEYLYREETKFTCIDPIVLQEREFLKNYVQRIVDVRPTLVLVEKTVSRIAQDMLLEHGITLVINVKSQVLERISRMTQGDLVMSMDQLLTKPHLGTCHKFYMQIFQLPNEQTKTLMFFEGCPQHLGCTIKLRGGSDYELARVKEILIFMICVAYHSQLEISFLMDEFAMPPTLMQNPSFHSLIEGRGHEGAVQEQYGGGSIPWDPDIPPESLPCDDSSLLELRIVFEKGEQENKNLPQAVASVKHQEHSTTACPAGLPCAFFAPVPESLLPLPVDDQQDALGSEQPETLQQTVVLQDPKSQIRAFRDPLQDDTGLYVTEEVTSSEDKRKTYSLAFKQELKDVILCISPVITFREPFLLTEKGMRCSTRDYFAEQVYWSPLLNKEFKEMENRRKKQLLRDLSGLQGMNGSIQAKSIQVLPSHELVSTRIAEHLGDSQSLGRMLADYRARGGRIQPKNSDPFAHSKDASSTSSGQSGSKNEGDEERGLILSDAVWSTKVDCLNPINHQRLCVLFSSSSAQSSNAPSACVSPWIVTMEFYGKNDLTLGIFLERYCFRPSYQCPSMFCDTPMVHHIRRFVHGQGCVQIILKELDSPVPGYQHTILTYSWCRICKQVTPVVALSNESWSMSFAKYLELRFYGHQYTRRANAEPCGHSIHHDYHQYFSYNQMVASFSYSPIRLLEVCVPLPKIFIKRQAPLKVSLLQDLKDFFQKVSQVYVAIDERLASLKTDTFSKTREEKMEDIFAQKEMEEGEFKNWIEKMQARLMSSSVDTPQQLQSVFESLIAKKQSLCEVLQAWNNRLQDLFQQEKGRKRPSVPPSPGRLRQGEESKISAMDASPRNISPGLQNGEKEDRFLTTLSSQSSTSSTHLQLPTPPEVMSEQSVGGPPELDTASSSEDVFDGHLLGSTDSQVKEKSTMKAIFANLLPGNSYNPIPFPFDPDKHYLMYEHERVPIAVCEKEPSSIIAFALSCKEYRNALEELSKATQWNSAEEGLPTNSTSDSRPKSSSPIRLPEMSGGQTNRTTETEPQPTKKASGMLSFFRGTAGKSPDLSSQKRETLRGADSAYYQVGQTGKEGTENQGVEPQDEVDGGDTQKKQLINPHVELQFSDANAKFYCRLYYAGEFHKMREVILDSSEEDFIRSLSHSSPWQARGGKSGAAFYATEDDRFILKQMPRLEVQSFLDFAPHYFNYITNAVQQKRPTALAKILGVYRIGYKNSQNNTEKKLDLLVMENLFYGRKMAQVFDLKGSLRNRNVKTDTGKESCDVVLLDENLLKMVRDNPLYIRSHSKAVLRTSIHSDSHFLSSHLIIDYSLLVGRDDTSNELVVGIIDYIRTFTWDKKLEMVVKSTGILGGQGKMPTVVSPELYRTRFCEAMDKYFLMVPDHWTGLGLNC
row,Kd,SMILES
1,5 to 10 nM,"Cc1cccc(-c2cc(O)n(-c3nc4c(c(N5CCOCC5)n3)CN(C(=O)Nc3cccnc3)C4)n2)c1 [Example 38, 2-[5-hydroxy-3-(m-tolyl)pyrazol-1-yl]-4-morpholino-N-(3-pyridyl)-5,7-dihydropyrrolo[3,4-d]pyrimidine-6-carboxamide methane sulfonate]"
2,≤ 1 nM,"Cc1cccc(/C=N/Nc2cc(N3CCOCC3)n3nc(C(=O)NC4COC4)cc3n2)c1 [Example 41, 7-morpholino-5-[(2E)-2-(m-tolylmethylene)hydrazino]-N-(oxetan-3-yl)pyrazolo[1,5-a]pyrimidine-2-carboxamide]"
3,≤ 1 nM,"Cc1cccc(/C=N/Nc2nc3c(c(N4CCOCC4)n2)CN(S(=O)(=O)c2cn(C)cn2)C3)c1 [Example 15, 6-(1-methylimidazol-4-yl)sulfonyl-4-morpholino-N-[(E)-m-tolylmethyleneamino]-5,7-dihydropyrrolo[3,4-d]pyrimidin-2-amine]"
4,5 to 10 nM,"Cc1cccc(/C=N/Nc2nc3c(c(N4CCOC[C@H]4C)n2)CN(c2ncccn2)C3)c1 [Example 26, 4-[(3R)-3-methylmorpholin-4-yl]-N-[(E)-m-tolylmethyleneamino]-6-pyrimidin-2-yl-5,7-dihydropyrrolo[3,4-d]pyrimidin-2-amine]"
5,100 to 2000 nM,"O=C(Nc1cccnc1)N1Cc2nc(N/N=C/c3cccc(C(F)(F)F)c3)nc(N3CCOCC3)c2C1 [Example 8, 4-morpholino-N-(3-pyridyl)-2-[(2E)-2-[[3-(trifluoromethyl)phenyl]methylene]hydrazino]-5,7-dihydropyrrolo[3,4-d]pyrimidine-6-carboxamide]"
6,60 to 100 nM,"O=C(Nc1cccnc1)N1Cc2nc(N/N=C/c3cccc(O)c3)nc(N3CCOCC3)c2C1 [Example 6, 2-[(2E)-2-[(3-hydroxyphenyl)methylene]hydrazino]-4-morpholino-N-(3-pyridyl)-5,7-dihydropyrrolo[3,4-d]pyrimidine-6-carboxamide]"
7,5 to 10 nM,"CCNC(=O)N1Cc2nc(N/N=C/c3cccc(C)c3)nc(N3CCOCC3)c2C1 [Example 1, N-ethyl-4-morpholino-2-[(2E)-2-(m-tolylmethylene)hydrazino]-5,7-dihydropyrrolo[3,4-d]pyrimidine-6-carboxamide]"
8,10 to 60 nM,"O=C(Nc1cccnc1)N1Cc2nc(N/N=C/c3cccc(Cl)c3)nc(N3CCOCC3)c2C1 [Example 7, 2-[(2E)-2-[(3-chlorophenyl)methylene]hydrazino]-4-morpholino-N-(3-pyridyl)-5,7-dihydropyrrolo[3,4-d]pyrimidine-6-carboxamide]"
9,1 to 5 nM,"Cc1cccc(/C=N/Nc2nc3c(c(N4CCOCC4)n2)CN(C(=O)NC2CCC2)C3)c1 [Example 5, N-cyclobutyl-4-morpholino-2-[(2E)-2-(m-tolylmethylene)hydrazino]-5,7-dihydropyrrolo[3,4-d]pyrimidine-6-carboxamide]"
10,1 to 5 nM,"Cc1cccc(/C=N/Nc2nc3c(c(N4CCOCC4)n2)CN(C(=O)NC2COC2)C3)c1 [Example 27, 4-morpholino-2-[(2E)-2-(m-tolylmethylene)hydrazino]-N-(oxetan-3-yl)-5,7-dihydropyrrolo[3,4-d]pyrimidine-6-carboxamide]"
11,1 to 5 nM,"Cc1cccc(/C=N/Nc2nc3c(c(N4CCOCC4)n2)CN(S(=O)(=O)c2cccc(C(=O)O)c2)C3)c1 [Example 16, 3-[[4-morpholino-2-[(2E)-2-(m-tolylmethylene)hydrazino]-5,7-dihydropyrrolo[3,4-d]pyrimidin-6-yl]sulfonyl]benzoic acid]"
12,1 to 5 nM,"Cc1cccc(/C=N/Nc2nc3c(c(N4CCOC[C@@H]4C)n2)CN(c2ncccn2)C3)c1 [Example 25, 4-[(3S)-3-methylmorpholin-4-yl]-N-[(E)-m-tolylmethyleneamino]-6-pyrimidin-2-yl-5,7-dihydropyrrolo[3,4-d]pyrimidin-2-amine]"

# Continued, molecule first:
row,SMILES,Kd
1,"Cc1cccc(-c2cc(O)n(-c3nc(N4CCOCC4)c4sc(-c5ccncc5)cc4n3)n2)c1 [Example 33, 2-[4-morpholino-6-(4-pyridyl)thieno[3,2-d]pyrimidin-2-yl]-5-(m-tolyl)pyrazol-3-ol methane sulfonate]",≤ 1 nM
2,"Cc1cccc(/C=N/Nc2nc3c(c(N4CCOCC4)n2)CN(S(=O)(=O)c2c(C)noc2C)C3)c1 [Example 22, 6-(3,5-dimethylisoxazol-4-yl)sulfonyl-4-morpholino-N-[(E)-m-tolylmethyleneamino]-5,7-dihydropyrrolo[3,4-d]pyrimidin-2-amine]",1 to 5 nM
3,"Cc1cccc(/C=N/Nc2nc3c(c(N4CCOCC4)n2)CN(S(=O)(=O)c2c(C)n[nH]c2C)C3)c1 [Example 20, 6-[(3,5-dimethyl-1H-pyrazol-4-yl)sulfonyl]-4-morpholino-N-[(E)-m-tolylmethyleneamino]-5,7-dihydropyrrolo[3,4-d]pyrimidin-2-amine]",≤ 1 nM
4,"Cc1cccc(-c2cc(O)n(-c3nc4c(c(N5CCOCC5)n3)CN(S(=O)(=O)c3c(C)noc3C)C4)n2)c1 [Example 37, 2-[6-(3,5-dimethylisoxazol-4-yl)sulfonyl-4-morpholino-5,7-dihydropyrrolo[3,4-d]pyrimidin-2-yl]-5-(m-tolyl)pyrazol-3-ol]",100 to 2000 nM
5,"Cc1cccc(/C=N/Nc2nc3c(c(N4CCOCC4)n2)CN(S(=O)(=O)c2cccnc2)C3)c1 [Example 19, 4-morpholino-N-[(E)-m-tolylmethyleneamino]-6-(3-pyridylsulfonyl)-5,7-dihydropyrrolo[3,4-d]pyrimidin-2-amine]",1 to 5 nM
6,"Cc1cccc(/C=N/Nc2nc3c(c(N4CCOCC4)n2)CN(C(=O)NC2CNC2)C3)c1 [Example 28, N-(azetidin-3-yl)-4-morpholino-2-[(2E)-2-(m-tolylmethylene)hydrazino]-5,7-dihydropyrrolo[3,4-d]pyrimidine-6-carboxamide]",5 to 10 nM
7,"Cc1cccc(/C=N/Nc2nc3c(c(N4CCOCC4)n2)CN(c2ncccn2)C3)c1 [Example 23, 4-morpholino-N-[(E)-m-tolylmethyleneamino]-6-pyrimidin-2-yl-5,7-dihydropyrrolo[3,4-d]pyrimidin-2-amine]",1 to 5 nM
8,"Cc1cccc(/C=N/Nc2nc3c(c(N4CCOCC4)n2)CCN(S(=O)(=O)c2c(C)n[nH]c2C)C3)c1 [Example 29, 7-[(3,5-dimethyl-1H-pyrazol-4-yl)sulfonyl]-4-morpholino-N-[(E)-m-tolylmethyleneamino]-6,8-dihydro-5H-pyrido[3,4-d]pyrimidin-2-amine]",5 to 10 nM
9,"Cc1cccc(/C=N/Nc2nc3c(c(N4CCOCC4)n2)CN(c2ccncn2)C3)c1 [Example 24, 4-morpholino-N-[(E)-m-tolylmethyleneamino]-6-pyrimidin-4-yl-5,7-dihydropyrrolo[3,4-d]pyrimidin-2-amine]",1 to 5 nM
10,"Cc1cccc(/C=N/Nc2cc(N3CCOCC3)n3nc(C(=O)NC4CC(F)(F)C4)cc3n2)c1 [Example 42, N-(3,3-difluorocyclobutyl)-7-morpholino-5-[(2E)-2-(m-tolylmethylene)hydrazino]pyrazolo[1,5-a]pyrimidine-2-carboxamide]",1 to 5 nM
11,"Cc1cccc(/C=N/Nc2nc3c(c(N4CCOCC4)n2)CN(C(=O)Nc2cccnc2)C3)c1 [Example 3, 4-Morpholino-2-[(2E)-2-(m-tolylmethylene)hydrazino]-N-(3-pyridyl)-5,7-dihydropyrrolo[3,4-d]pyrimidine-6-carboxamide]",1 to 5 nM
12,"Cc1cccc(/C=N/Nc2nc3c(c(N4CCOCC4)n2)CN(C(=O)NC2CCCC2)C3)c1 [Example 4, N-cyclopentyl-4-morpholino-2-[(2E)-2-(m-tolylmethylene)hydrazino]-5,7-dihydropyrrolo[3,4-d]pyrimidine-6-carboxamide]",1 to 5 nM
13,"Cc1cccc(/C=N/Nc2nc3c(c(N4CCOCC4)n2)CN(S(=O)(=O)c2ccc(C(=O)O)cc2)C3)c1 [Example 17, 4-[[4-morpholino-2-[(2E)-2-(m-tolylmethylene)hydrazino]-5,7-dihydropyrrolo[3,4-d]pyrimidin-6-yl]sulfonyl]benzoic acid]",1 to 5 nM
14,"Cc1cccc(/C=N/Nc2nc3c(c(N4CCOCC4)n2)CN(Cc2cccnc2)C3)c1 [Example 10, 4-morpholino-N-[(E)-m-tolylmethyleneamino]-6-(3-pyridylmethyl)-5,7-dihydropyrrolo[3,4-d]pyrimidin-2-amine]",1 to 5 nM
15,"COc1cccc(-c2cc(O)n(-c3nc(N4CCOCC4)c4sc(-c5ccncc5)cc4n3)n2)c1 [Example 34, 5-(3-methoxyphenyl)-2-[4-morpholino-6-(4-pyridyl)thieno[3,2-d]pyrimidin-2-yl]pyrazol-3-ol]",5 to 10 nM
16,"Cc1cccc(/C=N/Nc2nc3c(c(N4CCOCC4)n2)CN(C(=O)Nc2ccc(F)cc2)C3)c1 [Example 2, N-(4-Fluorophenyl)-4-morpholino-2-[(2E)-2-(m-tolylmethylene)hydrazino]-5,7-dihydropyrrolo[3,4-d]pyrimidine-6-carboxamide]",5 to 10 nM

# Source: US20220168315A1, “COMPOUNDS AND THERAPEUTIC USES THEREOF” (priority 2019, published 2022)
